Measurements published in patent US20080031868A1, “HUMAN LYSOZYME MEDICINE, ITS MANUFACTURING METHOD AND APPLICATION THEREOF” (priority 2005, published 2008).
Marks after values point to notes of the source that are not given here.

Tested on: Staphylococcus aureus MRSABAA-42
Test: Bronchus pneumonia mice infected by Staphylococcus aureus MRSA BAA-42, treated by atomization inspiring
Format: in vivo
Settings: for bacterial number: mice lung

Human lysozyme: gene recombinant Human Lysozyme (HLZ), active unit 30000 u/mg, batch number 020110; given atomized / as aerosol
accumulative survival number (2 mg/ml atomization inspired, 30 mice, 14 days): 23 | survival rate (%) (2 mg/ml atomization inspired, 14 days): 76.7% | Death number(piece) (2 mg/ml atomization inspired, day 1): 0 piece | Death number(piece) (2 mg/ml atomization inspired, day 2): 0 piece | Death number(piece) (2 mg/ml atomization inspired, day 3): 0 piece | Death number(piece) (2 mg/ml atomization inspired, day 4): 0 piece | Death number(piece) (2 mg/ml atomization inspired, day 5): 0 piece | Death number(piece) (2 mg/ml atomization inspired, day 6): 0 piece | Death number(piece) (2 mg/ml atomization inspired, day 7): 0 piece | Death number(piece) (2 mg/ml atomization inspired, day 9): 2 piece | Death number(piece) (2 mg/ml atomization inspired, day 10): 1 piece | Death number(piece) (2 mg/ml atomization inspired, day 11): 2 piece | Death number(piece) (2 mg/ml atomization inspired, day 12): 0 piece | Death number(piece) (2 mg/ml atomization inspired, day 13): 0 piece | Death number(piece) (2 mg/ml atomization inspired, day 14): 0 piece | survival elevation rate (%) (2 mg/ml atomization inspired, versus infected model group): 60.0% | improving of survival rate and days over infected control group (2, 1, 0.5 mg/ml, p<0.05): 30-60% | lung bacterial number (by the 14th day, basically negative): < 10 CFU/ml | The 4th day (bacterial number, head incomplete) (dose 0.5): 5.0 ± 3.0 | The 5th day (bacterial number, head incomplete) (dose 0.5, the 5th day): 80.80 ± 14.28 | The 4th day (bacterial number, head incomplete) (dose 1): 5.5 ± 3.2 | The 5th day (bacterial number, head incomplete) (dose 1, the 5th day): 78.30 ± 17.86 | The 4th day (bacterial number, head incomplete) (dose 2): 3.5 ± 2.0 | The 5th day (bacterial number, head incomplete) (dose 2, the 5th day): 76.70 ± 11.60 | result of pathology detection of the mice bronchus (high dose 2 mg/ml, 3rd day): bronchus moderate inflammation, mucous membrane | result of pathology detection of the mice lung tissue (high dose 2 mg/ml, 3rd day): part of alveolar wall tissue thickening, few monocaryon | result of pathology detection of the mice trachea (high dose 2 mg/ml, 3rd day): acute moderate inflammation | result of pathology detection of the mice bronchus (high dose 2 mg/ml, 7th day): bronchus moderate inflammation, intact mucous | result of pathology detection of the mice lung tissue (high dose 2 mg/ml, 7th day): normal basically | result of pathology detection of the mice trachea (high dose 2 mg/ml, 7th day): Normal basically | result of pathology detection of the mice bronchus (high dose 2 mg/ml, 14th day): Normal basically | result of pathology detection of the mice bronchus (low dose 0.5 mg/ml, 3rd day): bronchus moderate inflammation | result of pathology detection of the mice lung tissue (low dose 0.5 mg/ml, 3rd day): the disperse alveolar wall tissue gently thickening, | result of pathology detection of the mice trachea (low dose 0.5 mg/ml, 3rd day): acute hyperphlogosis | result of pathology detection of the mice bronchus (low dose 0.5 mg/ml, 7th day): bronchus moderate inflammation | result of pathology detection of the mice lung tissue (low dose 0.5 mg/ml, 7th day): the part or disperse alveolar wall tissue gently | result of pathology detection of the mice trachea (low dose 0.5 mg/ml, 7th day): acute hyperphlogosis | result of pathology detection of the mice bronchus (low dose 0.5 mg/ml, 14th day): bronchus moderate inflammation, bleeding | result of pathology detection of the mice trachea (low dose 0.5 mg/ml, 14th day): acute mild inflammation | result of pathology detection of the mice bronchus (medium dose 1 mg/ml, 3rd day): bronchus moderate inflammation, bleeding, hydroncus, | result of pathology detection of the mice lung tissue (medium dose 1 mg/ml, 3rd day): bronchiole alveolar wall tissue thickening, few | result of pathology detection of the mice trachea (medium dose 1 mg/ml, 3rd day): acute moderate inflammation | result of pathology detection of the mice bronchus (medium dose 1 mg/ml, 7th day): bronchus moderate inflammation | result of pathology detection of the mice trachea (medium dose 1 mg/ml, 7th day): acute moderate inflammation | result of pathology detection of the mice bronchus (medium dose 1 mg/ml, 14th day): bronchus moderate inflammation | result of pathology detection of the mice lung tissue (medium dose 1 mg/ml, 14th day): normal basically | result of pathology detection of the mice trachea (medium dose 1 mg/ml, 14th day): Normal basically | pharmacology histology detection of trachea, bronchus, lung tissue (mice killed on the 7th, 14th day after administration): turned to normal basically | bacterial number (atomization inspired 0.5 (15000 u/piece), the 1th day): 350.60 ± 21.5 CFU/mL | bacterial number (atomization inspired 0.5 (15000 u/piece), the 3rd day): 241.90 ± 16.62 CFU/mL | bacterial number (atomization inspired 0.5 (15000 u/piece), the 5th day): 134.60 ± 13.58 CFU/mL | bacterial number (atomization inspired 0.5 (15000 u/piece), the 14th day): 57.60 ± 15.37 CFU/mL | bacterial number (atomization inspired 1 (30000 u/piece), 0 day): 350 ± 21.5 CFU/mL | bacterial number (atomization inspired 1 (30000 u/piece), the 1th day): 254.20 ± 25.42 CFU/mL | bacterial number (atomization inspired 1 (30000 u/piece), the 3rd day): 172.70 ± 17.62**^ΔΔ CFU/mL | bacterial number (atomization inspired 1 (30000 u/piece), the 14th day): 3.5 ± 0.20 CFU/mL | bacterial number (atomization inspired 2 (60000 u/piece), the 1th day): 253.80 ± 22.88 CFU/mL | bacterial number (atomization inspired 2 (60000 u/piece), the 3rd day): 165.80 ± 16.08^ΔΔ CFU/mL | bacterial number (atomization inspired 2 (60000 u/piece), the 5th day): 76.70 ± 11.60***^ΔΔ CFU/mL | bacterial number (atomization inspired 2 (60000 u/piece), the 14th day): 2.50 ± 1.46 CFU/mL
